Columns and labels:
ras 47-mer stem/loop RNA = assay: Gel-shift assay of random 2'-O-methyl oligonucleotide sets binding to ras RNA target; conditions: for Kd: Table 3, 2'-O-methyl sets, ras RNA about 10 pM, 100 mM NaCl, 10 mM MgCl2, 4 h at 37° C., read-out: KD (set KD); for binding in gel shift (FIG. 2B) / shift of the target: Round 2; for binding in gel shift (FIG. 2B): sets at 1 and 10 μM
target protein = assay: Gel shift assay of anion-exchange subfractions of oligonucleotide sets; assay type: binding; conditions: first round; sets subfractionated by charge
Experimental: An oligonucleotide analog group comprising four sets of oligonucleotides eight positions in length is prepared in accordance with Examples 3 and 6 wherein each of the sets has a different one of adenins, guanine, thymidine and cytosine in the 5th position, and the rest of the positions are randomized to provide the group: NNNNANNN, NNNNGNNN, NNNNTNNN, and NNNNCNNN. Each set is subfractionated by charge with an anion exchange column. Each subfraction is tested for affinity for the target protein by gel shift assay. […] In a further round, the 5th position is fixed to contain an adenins in the 5th position, and each set has a different nucleotide in the fourth position to provide the group NNNAANNN, NNNTANNN, NNNGANNN, and NNNCANNN. The sets are again subfractionated by charge with an anion exchange column and the subfractions are tested for affinity for the target protein by gel shift assay. The steps are repeated until each position is determined.

protein CD4 = assay: Gel shift of 5' end labeled oligonucleotide groups with CD4; assay type: binding; conditions: for binding to the protein CD4: 100 pmoles labeled group, FIG. 7
HIV tat protein = assay: Binding of oligonucleotide groups to HIV tat protein; conditions: Example 27

Sequence: NNCNCNCNN [NNXNCNCNN X=C]
- shift of the target (FIG. 2C) (ras 47-mer stem/loop RNA; Round 3, sets at 0.1 and 1 μM): greater than 50%
- Kd (ras 47-mer stem/loop RNA): 0.5 µM

Sequence: NNNNANNN [Set A]
- binding affinity of subfraction for the target protein (target protein): highest binding affinity

Sequence: NNNNANNNN [NNNNXNNNN X=A]
- shift of ras target (FIG. 2A) (ras 47-mer stem/loop RNA; Round 1, 100 uM): slight shift
- Kd (ras 47-mer stem/loop RNA): 22 µM

Sequence: NNNNCNANN [NNNNCNXNN X=A]
- binding in gel shift (FIG. 2B) (ras 47-mer stem/loop RNA): minimal binding
- Kd (ras 47-mer stem/loop RNA): > 10 µM

Sequence: NNNNCNCNN [NNNNCNXNN X=C]
- shift of the target (ras 47-mer stem/loop RNA; 1 μM): > 25%
- shift of the target (ras 47-mer stem/loop RNA; 10 μM): about 50%
- Kd (ras 47-mer stem/loop RNA): 4 µM

Sequence: NNNNCNGNN [NNNNCNXNN X=G]
- binding in gel shift (FIG. 2B) (ras 47-mer stem/loop RNA): minimal binding
- Kd (ras 47-mer stem/loop RNA): > 10 µM

Sequence: NNNNCNNNN [NNNNXNNNN X=C]
- shift of the target to the bound form (ras 47-mer stem/loop RNA; Round 1, 50 uM oligonucleotide concentration): more than 50%
- Kd (ras 47-mer stem/loop RNA): 10 µM

Sequence: NNNNGNNNN [NNNNXNNNN X=G]
- binding in gel shift (FIG. 2A) (ras 47-mer stem/loop RNA; Round 1, sets at 5, 10, 50 and 100 μM): no binding
- Kd (ras 47-mer stem/loop RNA): > 100 µM

Sequence: NNNNTNNNN
- binding to the protein CD4 (protein CD4; listed as phosphorothioate oligonucleotide): binding of the oligonucleotide to the protein
- binding affinity for CD4 (FIG. 7 legend) (protein CD4; 100 pmoles, visible at 0.5 and 1 μG CD4, presence and absence of dIdC): exhibited binding
- binding against the tat protein (HIV tat protein): Binding has been observed

Sequence: NNNNTNNNN [2'-O-methyl set]
- binding to the protein CD4 (protein CD4): No binding

— patent US5672472A, “Synthetic unrandomization of oligomer fragments” (ISIS Pharmaceuticals, Inc., priority 1994, dated 1997)
